Test results as given in ChEMBL document CHEMBL1135095, “3-D QSAR studies on new dibenzyltin(IV) anticancer agents by comparative molecular field analysis (CoMFA)” (Bioorg Med Chem Lett, 2002).

Columns and labels:
[1] = organism: Mus musculus; assay: Lethal dose in swiss albino mice by peroral route; format: toxicity, organism-based; details: in vivo, po
[2] = test system: IGROV-1; assay: In vitro antitumor activity against IGROV human cancer cell line; format: functional, cell-based
[3] = test system: SK-MEL19; assay: In vitro antitumor activity against MEL 19 human cancer cell line; format: functional, cell-based
[4] = test system: WiDr; assay: In vitro antitumor activity against WIDR human cancer cell line; format: functional, cell-based

Sequence CARBOPLATIN [listing 1 of 2 here] has an LD50 [1] of 150 mg/kg.
In the case of CARBOPLATIN [listing 2 of 2 here], the ID50 [2] is reported as 646 µM, the ID50 [3] is reported as 1480 µM and the ID50 [4] is reported as 943 µM.
CISPLATIN [listing 1 of 2 here] showed an LD50 [1] of 31 mg/kg.
Work on CISPLATIN [listing 2 of 2 here] yielded an ID50 [2] of 75 µM, an ID50 [3] of 260 µM and an ID50 [4] of 450 µM.
